Source: patent US11952334B2, “Cocrystals of ubiquinone and compositions comprising them” (CENTER FOR INTELLIGENT RESEARCH IN CRYSTAL ENGINEERING, S.L., priority 2018, dated 2024)

How the values were obtained:
[1] = Particle size analysis (granulometry) by laser dispersion; type: physicochemical; conditions: dispersing fluid silicone oil
Description: Particle size can be determined, for example by laser dispersion on a Beckman Coulter LS13320 provided with a MLM (Micro Liquid Module) (measure range: 0.4 to 2000 μm; optic model: Fraunhofer.rdf, PIDS included).
Particle size analysis (granulometry) was performed by laser dispersion on a Beckman Coulter LS13320 provided with a MLM (Micro Liquid Module) (measure range: 0.4 to 2000 μm; optic model: Fraunhofer.rdf, PIDS included).
In a beaker about 10 ml of silicone oil and a microspoon of sample were placed. The sample was homogeneized by pipetting it repeatedly with a pasteurized pipette and by subjecting it to ultrasonic treatment (30 KHz; 200 W). The module was cleaned and filled with silicone oil as a dispersing fluid. Before each analysis, an optical alignment of the laser and a measure of the instrument noise was made.

[2] = Dissolution rate of ubiquinone vs cocrystals in FaSSIF-v2 medium (small-scale dissolution assay); type: physicochemical; conditions: for Dissolution rate: tablet 8 mm, exposed surface 0.5 cm^2, FaSSIF-v2 medium pH 6.50, 25° C., Noyes-Whitney fit; for Dissolution rate compared with ubiquinone (in words): FaSSIF-v2 medium pH 6.50, 25° C.
Description: 1. Dissolution Rate Experiments • Tablet production: tablets of 8 mm diameter were made using a manual hydraulic tablet press (Applied Measurements Ltd, UK) up to a compression weight of 70 Kg. 40-50 mg of compound, ubiquinone or co-crystal, were weighted. The total exposed surface area was 0.5 cm^2. • Medium: aqueous solution containing 106 mM sodium chloride, 28.4 mM monobasic sodium phosphate, and 8.7 mM sodium hydroxide, adjusted with sodium hydroxide to pH 6.50. • Dissolution tests were performed with a small-scale dissolution assay installed in a GlpKa™ titrator (Sirius Analytical Instruments, UK). • Dissolution time and temperature: 2 hours and 25° C. • Procedure: 15 mL of aqueous medium was added into the sample vial containing the tablet. Spectra were recorded every 30 seconds for 1 hour through Sirius D-PAS spectrometer, with a bifurcated optic fibre dip probe (Hellma Analytics). The medium was stirred at a constant rate.
2. HPLC-MS/MS Quantification • HPLC conditions: • Instrument: Agilent HPLC, consisting on two pumps, oven, and an autoinjector. • Column: Teknokroma C8, 150×4.6 mm, 5 μm. • Mobile phase: 5 mM ammonium formate in methanol:isopropanol (90:10). • Elution mode: isocratic. • Column temperature: 35° C. • Flow rate: 1 mL/min. • Injection volume: […]. • Retention time of ubiquinone: 8.5 min. • MS conditions: • Instrument: Linear Ion Trap Quadrupole LC/MS/MS Mass Spectrometer 6500 Q TRAP (AB SCIEX Instruments). • Curtain Gas: 25 p.s.i. • Source temperature: 400° C. • Ion Source Gas 1: 50 p.s.i. • Ion Source Gas 2: 50 p.s.i. • Ion Spray Voltage: 5500 V. • Mode: positive ionization. • Scan mode: MRM. • Transitions for ubiquinone: • Quantification: 880.8 (Q1)—197.1 (Q3); DP=100, CE=25; Dwell time=1000 ms • Confirmation: 880.8 (Q1)—149.3 (Q3); DP=90, CE=45; Dwell time=1000 ms.
Dissolution rates of the cocrystals were determined by monitoring the dissolution profile of the different coformers. Molar extinction coefficients (MEC) of the coformers were measured in water, assuming that they would be nearly identical in FaSSIF aqueous solution.
Dissolution rate of ubiquinone was determined spectrophotometrically. However, as MEC of ubiquinone couldn't be determined in water due to the low solubility of the compound in this medium, concentration of ubiquinone in the dissolution profile was determined by HPLC-MS/MS.
Noyes-Whitney first order exponential equation was fitted to experimental points, providing the dissolution rate values shown in Table 11 below.

Row | Molecule | Mean particle size [1] [μm] | Mode particle size [1] [μm] | Percentage of particles between 9.82 μm and 57.8 μm [1] [%] | Dissolution rate [2] [µg/min] | D10 [1] [μm] | D50 [1] [μm] | D90 [1] [μm] | Dissolution rate compared with ubiquinone (in words) [2]
1 | COC1=C(OC)C(=O)C(C/C=C(\C)CC/C=C(\C)CC/C=C(\C)CC/C=C(\C)CC/C=C(\C)CC/C=C(\C)CC/C=C(\C)CC/C=C(\C)CC/C=C(\C)CCC=C(C)C)=C(C)C1=O.O=C(O)c1ccc(O)cc1 [Compound P57-III, Ubiquinone:4-hydroxybenzoic acid cocrystal (1:1)] | 19.0 | 34.6 | 70.5 | 56 ± 8 | 2.51 | 18.2 | 36.1 | highest dissolution rate
2 | COC1=C(OC)C(=O)C(C/C=C(\C)CC/C=C(\C)CC/C=C(\C)CC/C=C(\C)CC/C=C(\C)CC/C=C(\C)CC/C=C(\C)CC/C=C(\C)CC/C=C(\C)CCC=C(C)C)=C(C)C1=O.COC1=C(OC)C(=O)C(C/C=C(\C)CC/C=C(\C)CC/C=C(\C)CC/C=C(\C)CC/C=C(\C)CC/C=C(\C)CC/C=C(\C)CC/C=C(\C)CC/C=C(\C)CCC=C(C)C)=C(C)C1=O.Cc1cc(O)cc(O)c1.Cc1cc(O)cc(O)c1.Cc1cc(O)cc(O)c1 [Compound P57-VII, Ubiquinone:orcinol cocrystal (2:3)] | 20.9 | 31.5 | 75.5 | 106 ± 23 | 2.09 | 23.5 | 35.5 | highest dissolution rate
3 | COC1=C(OC)C(=O)C(C/C=C(\C)CC/C=C(\C)CC/C=C(\C)CC/C=C(\C)CC/C=C(\C)CC/C=C(\C)CC/C=C(\C)CC/C=C(\C)CC/C=C(\C)CCC=C(C)C)=C(C)C1=O [Compound P57, ubiquinone] | 26.0 | 38.0 | 83.1 | 0.0012 ± 0.0007 | 5.19 | 28.4 | 41.7 | –

Further lines, results first:

Row | Mean particle size [1] [μm] | Mode particle size [1] [μm] | Percentage of particles between 9.82 μm and 57.8 μm [1] [%] | Dissolution rate [2] [µg/min] | D10 [1] [μm] | D50 [1] [μm] | D90 [1] [μm] | Dissolution rate compared with ubiquinone (in words) [2] | Molecule
4 | 14.5 | 31.5 | 52.9 | 5.7 ± 0.8 | – | – | – | – | Ubiquinone:resorcinol cocrystal (2:1) [Compound P57-V]
5 | 17.2 | 31.5 | 58.3 | – | 1.69 | 17.0 | 34.6 | – | COC1=C(OC)C(=O)C(C/C=C(\C)CC/C=C(\C)CC/C=C(\C)CC/C=C(\C)CC/C=C(\C)CC/C=C(\C)CC/C=C(\C)CC/C=C(\C)CC/C=C(\C)CCC=C(C)C)=C(C)C1=O.COC1=C(OC)C(=O)C(C/C=C(\C)CC/C=C(\C)CC/C=C(\C)CC/C=C(\C)CC/C=C(\C)CC/C=C(\C)CC/C=C(\C)CC/C=C(\C)CC/C=C(\C)CCC=C(C)C)=C(C)C1=O.Oc1ccc(O)cc1 [Compound P57-VI, Ubiquinone:hydroquinone (2:1)]
6 | 22.0 | 31.5 | 88.9 | 3.5 ± 0.4 | 9.46 | 22.2 | 34.0 | – | COC1=C(OC)C(=O)C(C/C=C(\C)CC/C=C(\C)CC/C=C(\C)CC/C=C(\C)CC/C=C(\C)CC/C=C(\C)CC/C=C(\C)CC/C=C(\C)CC/C=C(\C)CCC=C(C)C)=C(C)C1=O.COC1=C(OC)C(=O)C(C/C=C(\C)CC/C=C(\C)CC/C=C(\C)CC/C=C(\C)CC/C=C(\C)CC/C=C(\C)CC/C=C(\C)CC/C=C(\C)CC/C=C(\C)CCC=C(C)C)=C(C)C1=O.O.Oc1cc(O)cc(O)c1 [Compound P57-VIII, Ubiquinone:phloroglucinol monohydrate cocrystal (2:1:1)]
